Measured values published in ChEMBL document CHEMBL4622852, “Design and synthesis of novel proline based factor XIa selective inhibitors as leads for potential new anticoagulants” (Bioorg Med Chem Lett, 2020).
Calls of active or inactive are those of the source. The calls are words filed in the database; no cut-off is given here.

Columns and labels:
Coagulation factor XII = target: T1, Coagulation factor XII (Homo sapiens, UniProt P00748); assay: Inhibition of factor 12a (unknown origin)
T1 sequence (P00748 whole entry): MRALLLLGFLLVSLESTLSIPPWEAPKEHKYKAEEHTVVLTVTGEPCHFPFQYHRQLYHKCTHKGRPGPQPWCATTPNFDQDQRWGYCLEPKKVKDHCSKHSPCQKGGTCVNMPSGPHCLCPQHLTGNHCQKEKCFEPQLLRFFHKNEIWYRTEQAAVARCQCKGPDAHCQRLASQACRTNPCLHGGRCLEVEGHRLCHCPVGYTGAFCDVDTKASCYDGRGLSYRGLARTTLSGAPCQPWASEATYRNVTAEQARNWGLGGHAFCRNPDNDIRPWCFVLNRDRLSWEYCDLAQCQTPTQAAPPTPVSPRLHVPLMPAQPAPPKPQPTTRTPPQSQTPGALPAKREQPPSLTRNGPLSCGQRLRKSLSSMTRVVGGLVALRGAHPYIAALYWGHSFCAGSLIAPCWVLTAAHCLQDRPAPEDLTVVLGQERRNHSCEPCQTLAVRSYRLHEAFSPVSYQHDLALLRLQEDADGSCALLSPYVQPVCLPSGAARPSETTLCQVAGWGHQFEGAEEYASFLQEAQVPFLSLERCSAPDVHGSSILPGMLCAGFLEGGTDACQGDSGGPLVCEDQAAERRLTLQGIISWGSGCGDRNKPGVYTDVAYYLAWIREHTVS

Coagulation factor VII = target: T2, Coagulation factor VII (Homo sapiens, UniProt P08709); assay: (§1) Inhibition of factor 7a (unknown origin)
T2 sequence (P08709 whole entry): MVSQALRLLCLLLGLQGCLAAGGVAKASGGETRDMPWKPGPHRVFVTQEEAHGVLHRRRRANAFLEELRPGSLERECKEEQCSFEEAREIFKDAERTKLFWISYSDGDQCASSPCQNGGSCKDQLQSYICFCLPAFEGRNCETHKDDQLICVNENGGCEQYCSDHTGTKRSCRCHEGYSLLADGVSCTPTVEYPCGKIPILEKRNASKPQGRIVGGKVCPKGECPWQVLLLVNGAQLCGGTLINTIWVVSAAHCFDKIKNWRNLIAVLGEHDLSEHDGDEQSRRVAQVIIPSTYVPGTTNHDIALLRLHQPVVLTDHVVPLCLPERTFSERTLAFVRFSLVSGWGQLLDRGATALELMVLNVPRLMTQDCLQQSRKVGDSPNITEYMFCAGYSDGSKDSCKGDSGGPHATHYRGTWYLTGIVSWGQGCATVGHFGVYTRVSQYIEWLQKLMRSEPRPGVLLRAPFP

Trypsin = Trypsin (Homo sapiens, UniProt P07477+P07478+P35030); assay: Inhibition of trypsin (unknown origin); format: protein assay
Coagulation factor XI [1] = target: T3, Coagulation factor XI (Homo sapiens, UniProt P03951); assay: Inhibition of factor 11a (unknown origin)
Coagulation factor X = Coagulation factor X (Homo sapiens, UniProt P00742); assay: Inhibition of factor 10a (unknown origin)
Coagulation factor IX = Coagulation factor IX (Homo sapiens, UniProt P00740); assay: Inhibition of factor 9a (unknown origin)
Prothrombin = Prothrombin (Homo sapiens, UniProt P00734); assay: Inhibition of thrombin (unknown origin)
Coagulation factor XI [2] = target: T3, Coagulation factor XI; assay: Inhibition of factor 11a (unknown origin) at 10 uM relative to control
[3] = target: T4, Coagulation factor VII (Homo sapiens) (UniProt P08709); assay: as §1
T4 sequence (whole entry): T2 sequence (P08709 whole entry)

Sequence of Coagulation factor X (P00742 41-179 limits assumed): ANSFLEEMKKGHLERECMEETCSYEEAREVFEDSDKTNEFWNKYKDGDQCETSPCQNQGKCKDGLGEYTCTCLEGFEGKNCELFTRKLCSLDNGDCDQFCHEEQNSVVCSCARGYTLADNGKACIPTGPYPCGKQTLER
Sequence of Coagulation factor X (P00742 235-488 limits assumed): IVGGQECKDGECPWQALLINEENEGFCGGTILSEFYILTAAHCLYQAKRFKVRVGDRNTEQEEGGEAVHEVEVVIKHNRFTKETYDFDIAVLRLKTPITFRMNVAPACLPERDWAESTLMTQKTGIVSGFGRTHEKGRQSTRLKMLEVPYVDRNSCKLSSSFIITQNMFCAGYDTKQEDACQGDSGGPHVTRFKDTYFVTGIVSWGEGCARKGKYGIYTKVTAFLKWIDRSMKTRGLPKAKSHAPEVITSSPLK
T3 sequence (P03951 19-387 limits assumed): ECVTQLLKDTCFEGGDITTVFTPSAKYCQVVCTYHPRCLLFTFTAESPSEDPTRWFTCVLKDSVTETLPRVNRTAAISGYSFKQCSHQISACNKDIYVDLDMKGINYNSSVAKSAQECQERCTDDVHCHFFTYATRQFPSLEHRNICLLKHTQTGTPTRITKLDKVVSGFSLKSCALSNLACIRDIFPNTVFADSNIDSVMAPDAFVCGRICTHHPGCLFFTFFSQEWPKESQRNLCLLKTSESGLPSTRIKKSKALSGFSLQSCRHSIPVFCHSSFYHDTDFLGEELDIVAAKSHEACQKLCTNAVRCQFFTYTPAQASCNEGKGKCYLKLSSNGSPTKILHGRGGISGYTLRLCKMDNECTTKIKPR
T3 sequence (P03951 388-625 limits assumed): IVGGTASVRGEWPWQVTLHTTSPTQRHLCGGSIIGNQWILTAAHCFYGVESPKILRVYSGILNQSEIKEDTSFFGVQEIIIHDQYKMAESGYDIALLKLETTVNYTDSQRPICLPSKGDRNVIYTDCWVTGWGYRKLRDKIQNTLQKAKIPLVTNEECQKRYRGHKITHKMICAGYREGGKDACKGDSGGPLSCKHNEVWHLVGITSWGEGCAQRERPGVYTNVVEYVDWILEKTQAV
Sequence of Coagulation factor IX (P00740 47-191 limits assumed): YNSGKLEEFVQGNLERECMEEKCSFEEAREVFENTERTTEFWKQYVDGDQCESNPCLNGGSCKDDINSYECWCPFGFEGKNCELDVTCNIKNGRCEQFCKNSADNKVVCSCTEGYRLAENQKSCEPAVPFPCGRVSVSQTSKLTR
Sequence of Coagulation factor IX (P00740 227-461 limits assumed): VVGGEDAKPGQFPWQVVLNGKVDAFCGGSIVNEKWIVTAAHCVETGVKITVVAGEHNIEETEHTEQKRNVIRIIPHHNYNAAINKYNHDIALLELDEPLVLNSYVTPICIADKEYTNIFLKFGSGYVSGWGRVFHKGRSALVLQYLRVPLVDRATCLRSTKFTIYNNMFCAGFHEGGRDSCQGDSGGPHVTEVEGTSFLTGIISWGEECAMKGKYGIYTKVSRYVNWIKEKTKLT

Row | Compound | IC50 (Coagulation factor XI [1]) | IC50 (Prothrombin) | further results
1 | CC[C@@H](C)[C@@H](NC1CCC(F)(F)CC1)C(=O)N1C[C@](O)(CC)C[C@H]1C(=O)NCc1ccc2c(N)nccc2c1 | 88 nM | 1190 nM | IC50 (Coagulation factor XII): > 10000 nM; IC50 (Coagulation factor VII): 3800 nM; IC50 (Trypsin): 2701 nM; IC50 (Coagulation factor X): 652 nM; IC50 (Coagulation factor IX): > 30000 nM
2 | CC(C)CN[C@H](CC(C)C)C(=O)N1CCC[C@H]1C(=O)NCc1ccc2c(N)nccc2c1 | 2690 nM | 37 nM | 
3 | CC[C@@H](C)[C@@H](NC(C)C(F)F)C(=O)N1C[C@@](C)(O)C[C@H]1C(=O)NCc1ccc2c(N)nccc2c1 (stereo partly specified) | 77 nM | 3630 nM | IC50 (Coagulation factor XII): > 10000 nM; IC50 (Coagulation factor VII): 2760 nM; IC50 (Trypsin): 4034 nM; IC50 (Coagulation factor X): 798 nM; IC50 (Coagulation factor IX): > 10000 nM
4 | CC[C@@H](C)[C@@H](NS(=O)(=O)Cc1ccc(Cl)cc1)C(=O)N1C[C@@](C)(C#N)C[C@H]1C(=O)NCc1ccc2c(N)nccc2c1 | 10 nM | 43 nM | IC50 (Coagulation factor XII): > 20000 nM; IC50 (Coagulation factor VII): 285 nM; IC50 (Trypsin): 2526 nM; IC50 (Coagulation factor X): 829 nM; IC50 (Coagulation factor IX): > 30000 nM
5 | CC[C@@H](C)[C@@H](NC1CCCCC1)C(=O)N1C[C@](O)(CC)C[C@H]1C(=O)NCc1ccc2c(N)nccc2c1 | 22 nM | 92 nM | IC50 (Coagulation factor XII): 426 nM; IC50 (Coagulation factor VII): 646 nM; IC50 (Trypsin): 410 nM; IC50 (Coagulation factor X): 93 nM; IC50 (Coagulation factor IX): > 10000 nM
6 | CC(C)C[C@@H](NC1CCOCC1)C(=O)N1CCC[C@H]1C(=O)NCc1ccc2c(N)nccc2c1 | 1350 nM | 281 nM | 
7 | CC[C@@H](C)[C@@H](NS(=O)(=O)Cc1ccc(Cl)cc1)C(=O)N1C[C@@](C)(O)C[C@H]1C(=O)NCc1ccc2c(N)nccc2c1 | 15 nM | 370 nM | IC50 (Coagulation factor XII): > 30000 nM; IC50 (Coagulation factor VII): 2020 nM; IC50 (Trypsin): 2020 nM; IC50 (Coagulation factor X): 78 nM; IC50 (Coagulation factor IX): > 20000 nM
8 | CC[C@@H](C)[C@@H](NC1CCCCC1)C(=O)N1CCC[C@H]1C(=O)NCc1ccc2c(N)nccc2c1 | 16 nM |  | 
9 | CO[C@H]1C[C@@H](C(=O)NCc2ccc3c(N)nccc3c2)N(C(=O)[C@@H](CC(C)C)NC2CCCCC2)C1 | 263 nM | > 5000 nM | 
10 | CC(C)C[C@@H](NC1CCCCC1)C(=O)N1C[C@@H](C(F)(F)F)C[C@H]1C(=O)NCc1ccc2c(N)nccc2c1 | 76 nM | > 5000 nM | 
11 | CC(C)C[C@@H](NC(C)C(F)F)C(=O)N1CCC[C@H]1C(=O)NCc1ccc2c(N)nccc2c1 (stereo partly specified) | 339 nM | 95 nM | 
12 | CC(C)C[C@@H](NC1CCCC1)C(=O)N1CCC[C@H]1C(=O)NCc1ccc2c(N)nccc2c1 | 1380 nM | 38 nM | 
13 | O=C(NCc1cc(Cl)ccc1-n1cnnn1)[C@@H]1CCCN1C(=O)[C@@H](CC1CCCCC1)NC1CCCCC1 | > 30000 nM |  | 
14 | Nc1nccc2cc(CNC(=O)[C@@H]3CCCN3C(=O)[C@@H](CC3CC3)NC3CCCCC3)ccc12 | 98 nM | 6 nM | 
15 | CC(C)C[C@@H](NC1CCC(F)(F)CC1)C(=O)N1CCC[C@H]1C(=O)NCc1ccc2c(N)nccc2c1 | 417 nM | 120 nM | 
16 | CC(C)C[C@@H](NC1CCCCC1)C(=O)N1C[C@@H](O)C[C@H]1C(=O)NCc1ccc2c(N)nccc2c1 | 100 nM | 1000 nM | 
17 | CC(C)C[C@@H](NC1CCC1)C(=O)N1CCC[C@H]1C(=O)NCc1ccc2c(N)nccc2c1 | 3310 nM | 44 nM | 
18 | CC[C@@H](C)[C@@H](NC1CCCCC1)C(=O)N1C[C@@](C)(C#N)C[C@H]1C(=O)NCc1ccc2c(N)nccc2c1 | 28 nM | 289 nM | IC50 (Coagulation factor XII): 7290 nM; IC50 (Coagulation factor VII): 1130 nM; IC50 (Trypsin): 3371 nM; IC50 (Coagulation factor X): 2740 nM; IC50 (Coagulation factor IX): > 10000 nM
19 | Cc1cc2cc(CNC(=O)[C@@H]3CCCN3C(=O)[C@@H](CC3CCCCC3)NC3CCCCC3)ccc2c(N)n1 |  |  | inhibition (Coagulation factor XI [2]): 61%

Row | Compound | IC50 (Coagulation factor XI [1]) | IC50 (Prothrombin) | further results
20 | CC[C@@H](C)[C@@H](NC1CCCCC1)C(=O)N1C[C@@H](O)C[C@H]1C(=O)NCc1ccc2c(N)nccc2c1 | 21 nM | 309 nM | IC50 (Coagulation factor XII): 341 nM; IC50 (Coagulation factor VII): 993 nM; IC50 (Trypsin): 824 nM; IC50 (Coagulation factor X): 136 nM; IC50 (Coagulation factor IX): 8330 nM
21 | CC[C@H](C)[C@@H](NC1CCCCC1)C(=O)N1CCC[C@H]1C(=O)NCc1ccc2c(N)nccc2c1 | 347 nM |  | 
22 | Nc1nccc2cc(CNC(=O)[C@@H]3CCCN3C(=O)[C@H](NC3CCCCC3)C3CCCCC3)ccc12 | 91 nM | 6 nM | 
23 | CC(C)[C@@H](NC1CCCCC1)C(=O)N1CCC[C@H]1C(=O)NCc1ccc2c(N)nccc2c1 | 234 nM | 7 nM | 
24 | CC(C)C[C@@H](NC1CCCCC1)C(=O)N1CCC[C@H]1C(=O)NCc1ccc2c(N)nccc2c1 | 60 nM | 5 nM | 
25 | CC(C)C[C@@H](NC1CCC(C(F)(F)F)CC1)C(=O)N1CCC[C@H]1C(=O)NCc1ccc2c(N)nccc2c1 (stereo partly specified) | 490 nM | 174 nM | 
26 | Nc1ncnc2oc(CNC(=O)[C@@H]3CCCN3C(=O)[C@@H](CC3CCCCC3)NC3CCCCC3)cc12 |  |  | inhibition (Coagulation factor XI [2]): 8%
27 | CC(C)C[C@@H](NC1CCCCC1)C(=O)N1C[C@@H](F)C[C@H]1C(=O)NCc1ccc2c(N)nccc2c1 | 437 nM | > 5000 nM | 
28 | CC(C)C[C@@H](NC1CCCCC1)C(=O)N1CC[C@H]1C(=O)NCc1ccc2c(N)nccc2c1 | 1100 nM | 3 nM | 
29 | CC(C)C[C@@H](NC1CCCCC1)C(=O)N1C[C@@](C)(O)C[C@H]1C(=O)NCc1ccc2c(N)nccc2c1 | 49 nM |  | 
30 | CCS(=O)(=O)N[C@H](CC(C)C)C(=O)N1CCC[C@H]1C(=O)NCc1ccc2c(N)nccc2c1 | 794 nM | 24 nM | 
31 | CC[C@@H](C)[C@@H](NC1CCCCC1)C(=O)N1C[C@@](C)(O)C[C@H]1C(=O)NCc1ccc2c(N)nccc2c1 | 12 nM | 218 nM | IC50 (Coagulation factor XII): 241 nM; IC50 (Coagulation factor VII): 461 nM; IC50 (Trypsin): 547 nM; IC50 (Coagulation factor X): 49 nM; IC50 (Coagulation factor IX): 7830 nM
32 | CC[C@@H](C)[C@@H](NS(=O)(=O)Cc1ccc(C(F)(F)F)cc1)C(=O)N1C[C@@](C)(O)C[C@H]1C(=O)NCc1ccc2c(N)nccc2c1 | 46 nM | 521 nM | IC50 (Coagulation factor XII): > 30000 nM; IC50 (Coagulation factor VII): 2780 nM; IC50 (Trypsin): 2912 nM; IC50 (Coagulation factor X): 328 nM; IC50 (Coagulation factor IX): > 30000 nM
33 | Nc1nccc2cc(CNC(=O)[C@@H]3CCCN3C(=O)[C@H](NC3CCCCC3)C3CCOCC3)ccc12 | 224 nM | 2 nM | 
34 | CC(C)C[C@@H](NC1CCCCC1)C(=O)N1CCCC[C@H]1C(=O)NCc1ccc2c(N)nccc2c1 | 138 nM | 4 nM | 
35 | CC(C)C[C@@H](NC1CCCCC1)C(=O)N1C[C@@H](C)C[C@H]1C(=O)NCc1ccc2c(N)nccc2c1 | 2340 nM |  | 
36 | Nc1ncnc2cc(CNC(=O)[C@@H]3CCCN3C(=O)[C@@H](CC3CCCCC3)NC3CCCCC3)ccc12 |  |  | inhibition (Coagulation factor XI [2]): 10%
37 | CCC[C@@H](NC1CCCCC1)C(=O)N1CCC[C@H]1C(=O)NCc1ccc2c(N)nccc2c1 | 171 nM | 9 nM | 
38 | Nc1nccc2cc(CNC(=O)[C@@H]3CCCN3C(=O)[C@@H](CC3CCCCC3)NC3CCCCC3)ccc12 | 160 nM | 1 nM | inhibition [3]: Active; inhibition (Coagulation factor X): Active; inhibition (Coagulation factor IX): Active
